For experiment [1], the target named is T1, GnT-IV (Bos taurus, UniProt O77836).
T1 construct: it is thought that GnT-IV from bovine small intestine is a glycoprotein having at least Asn-linked sugar chains; from tissue; host or cells: bovine small intestine (microsome fraction, Triton X-100 solubilized, purified to Sample 7)
T1 sequence (O77836 93-535 limits assumed): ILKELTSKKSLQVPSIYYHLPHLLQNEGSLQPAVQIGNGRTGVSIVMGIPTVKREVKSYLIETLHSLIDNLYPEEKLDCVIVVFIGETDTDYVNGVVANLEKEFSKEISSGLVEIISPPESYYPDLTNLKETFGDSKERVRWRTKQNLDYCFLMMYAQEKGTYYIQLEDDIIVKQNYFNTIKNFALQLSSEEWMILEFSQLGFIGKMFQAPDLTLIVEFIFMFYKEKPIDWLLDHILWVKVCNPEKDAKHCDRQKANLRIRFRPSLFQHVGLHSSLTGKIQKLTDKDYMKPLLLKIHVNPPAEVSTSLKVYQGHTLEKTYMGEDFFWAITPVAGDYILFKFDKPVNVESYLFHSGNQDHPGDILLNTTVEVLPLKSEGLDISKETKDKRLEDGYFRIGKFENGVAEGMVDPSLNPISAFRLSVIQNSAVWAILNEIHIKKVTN
The experiment can be described thus: Specific assay for GnT-IV activity (pyridylaminated oligosaccharide acceptor, HPLC) with purified enzyme. In kind it is biochemical, bovine. The conditions noted are these: for Activity (%), Inhibition of GnT-IV by Nucleotides: nucleotide 2 mM in the presence of 0.5 mM UDP-GlcNAc, nothing added = 100%. How it is done:
Then, the reaction was terminated by boiling the solution for 2 minutes. […] The fluorescence of pyridylamino groups was detected using excitation at 320 nm and emission at 400 nm.

The target of experiment [2] is T2, GnT-IV (Bos taurus, UniProt O77836).
T2 construct: it is thought that GnT-IV from bovine small intestine is a glycoprotein having at least Asn-linked sugar chains; from tissue; host or cells: bovine small intestine (microsome fraction, Triton X-100 solubilized, purified to Sample 7)
T2 sequence (O77836 1-535): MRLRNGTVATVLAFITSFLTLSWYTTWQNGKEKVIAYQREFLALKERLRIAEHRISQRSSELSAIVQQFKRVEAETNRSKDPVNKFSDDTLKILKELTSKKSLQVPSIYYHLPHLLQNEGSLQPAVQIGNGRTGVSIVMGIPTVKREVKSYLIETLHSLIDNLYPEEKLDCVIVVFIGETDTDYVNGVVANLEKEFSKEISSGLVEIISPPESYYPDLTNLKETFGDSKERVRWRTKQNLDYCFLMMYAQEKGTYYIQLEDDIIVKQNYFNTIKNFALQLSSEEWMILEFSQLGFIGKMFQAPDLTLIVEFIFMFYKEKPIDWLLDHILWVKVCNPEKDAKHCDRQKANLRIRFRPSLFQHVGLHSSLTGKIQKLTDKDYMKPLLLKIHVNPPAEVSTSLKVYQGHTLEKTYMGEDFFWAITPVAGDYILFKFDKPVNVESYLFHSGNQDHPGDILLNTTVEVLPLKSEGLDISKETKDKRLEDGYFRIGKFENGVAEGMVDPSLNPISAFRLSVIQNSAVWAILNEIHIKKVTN
In words: Action of GnT-IV on glycoproteins (UDP-[14C]GlcNAc, SDS-PAGE and fluorography). In kind it is biochemical, bovine. The conditions noted are these: 37° C., 20 hours; FIG. 17 Panel B lanes 2 and 5. Here is the method: GnT-IV reaction conditions: To 10 μl of a solution containing […] of GnT-IV, a substrate glycoprotein equivalent to 1.6 nmol of biantennary type sugar chains (for fetuin alone, the sugar chain content was 1.6 nmol) and 450 nCi of UDP-[^14C] […] One tenth of the resultant solution was analyzed by SDS-PAGE and fluorography.
For SDS-PAGE, 10-20% gradient gel (Daiichi Kagaku) was used. For fluorography, Amplify (Amersham) was used to expose the samples to X ray film for 20 hours.
GlcNAc as a sugar donor. Then, the reaction products were analyzed by SDS-PAGE and fluorography (Panels A and B, FIG. 17). As shown in lanes 2 and 5 of Panel B in FIG. 17, transfer of [^14 C] GlcNAc to asialo agalacto human transferrin and asialo agalacto, CHO cell-derived recombinant human erythropoietin.

[3] abbreviates: additive 10 mM added to GnT-IV sample freed of metal ions, activity with 10 mM MnCl2 = 100%.

“Also recorded” adds a separate entry of the source. Like-named read-outs stand apart in the source and are kept apart here.

For orientation: Km means the concentration of substrate that gives half-maximal velocity.

In the case of `O=c1ccn([C@H]2C[C@H](O)[C@@H](COP(=O)(O)OP(=O)(O)O)O2)c(=O)[nH]1` [2′-deoxy-UDP], at GnT-IV [1], the “Activity (%), Inhibition of GnT-IV by Nucleotides” value (from here on “Activity (%), Inhibition of GnT-IV”) worked out at 67.4%.

Turning to `Nc1ccn([C@@H]2O[C@H](COP(=O)(O)OP(=O)(O)O)[C@@H](O)[C@H]2O)c(=O)n1` [CDP], on GnT-IV [1], the “Inhibition of GnT-IV by nucleotides / UDP derivatives” value was “little inhibitory effect; also recorded: do not have inhibitory effect” and the “Activity (%), Inhibition of GnT-IV” value is 112%.

On to `[Ca+2].[Cl-].[Cl-]` [CaCl2], for which, at GnT-IV [1], the “Requirement of divalent cation: effect of additive on activity” value (“Requirement of divalent cation” for short) is listed as “Weak effect”. Moreover, the “Activity (%), Divalent Cation Requirement of GnT-IV” value at GnT-IV [1] (setting [3]) worked out at 7.2%.

Take `[Cl-].[Cl-].[Co+2]` [CoCl2]: at GnT-IV [1], the “Activity (%), Divalent Cation Requirement of GnT-IV” value was found to be 74.8% and the “Effect of divalent cation relative to that of Mn2+” value is recorded as “about 70%”.

For `[Cl][Cu][Cl]` [CuCl2], at GnT-IV [1] (setting [3]), the “Activity (%), Divalent Cation Requirement of GnT-IV” value is on record as 0%.

As to `[Cl][Fe][Cl]` [FeCl2], the “Requirement of divalent cation” value at GnT-IV [1] was “Weak effect”. The “Activity (%), Divalent Cation Requirement of GnT-IV” value on GnT-IV [1] (setting [3]) stood at 9.8%.

Regarding `[Cl-].[Cl-].[Mg+2]` [MgCl2], the “Activity (%), Divalent Cation Requirement of GnT-IV” value on GnT-IV [1] (setting [3]) was determined as 72.5%.

Consider `[Cl][Mn][Cl]` [MnCl2], for which the “Requirement of divalent cation” value at GnT-IV [1] is recorded as “greatest effect”. Besides, the “Activity (%), Divalent Cation Requirement of GnT-IV” value at GnT-IV [1] (setting [3]) came to 100%.

`Cc1cn([C@H]2C[C@H](O)[C@@H](COP(=O)(O)OP(=O)(O)O)O2)c(=O)[nH]c1=O` [TDP]: at GnT-IV [1], the “Inhibition of GnT-IV by nucleotides / UDP derivatives” value is “little inhibitory effect; also recorded: do not have inhibitory effect” and the “Activity (%), Inhibition of GnT-IV” value worked out at 110%.

For `CC(=O)N[C@H]1[C@@H](OP(=O)(O)OP(=O)(O)OC[C@H]2O[C@@H](n3ccc(=O)[nH]c3=O)[C@H](O)[C@@H]2O)O[C@H](CO)[C@@H](O)[C@@H]1O` [UDP-GlcNAc], on GnT-IV [1] (GnT-II product type oligosaccharide as receptor substrate, conditions (i)/Reference Example 2, read-out: Km toward UDP-GlcNAc), the Km was 220 µM.

For the molecule `CC(=O)N[C@H]1[C@@H](OP(=O)(O)OP(=O)(O)OC[C@H]2O[C@@H](n3ccc(=O)[nH]c3=O)[C@H](O)[C@@H]2O)O[C@H](CO)[C@H](O)[C@@H]1O` [UDP-N-acetylgalactosamine], the “Activity (%), Inhibition of GnT-IV” value at GnT-IV [1] stood at 59.7%.

`O=C(O)[C@H]1O[C@H](OP(=O)(O)OP(=O)(O)OC[C@H]2O[C@@H](n3ccc(=O)[nH]c3=O)[C@H](O)[C@@H]2O)[C@H](O)[C@@H](O)[C@@H]1O` [UDP-glucuronic acid]: the “Activity (%), Inhibition of GnT-IV” value on GnT-IV [1] was 92.3%.

Consider `NCCCCCCOP(=O)(O)OP(=O)(O)OCC1OC(n2ccc(=O)[nH]c2=O)C(O)C1O` (centres unmarked) [UDP-hexanolamine], for which, at GnT-IV [1], the “Activity (%), Inhibition of GnT-IV” value was 73.6%.

Turning to `O=c1ccn([C@@H]2O[C@H](COP(=O)(O)OP(=O)(O)O)[C@@H](O)[C@H]2O)c(=O)[nH]1` [UDP], on GnT-IV [1], the “Inhibition of GnT-IV by nucleotides / UDP derivatives” value is “inhibited the activity of this enzyme most strongly” and the “Activity (%), Inhibition of GnT-IV” value was 27.3%.

As to `O=c1ccn([C@@H]2O[C@H](COP(=O)(O)O)[C@@H](O)[C@H]2O)c(=O)[nH]1` [UMP], at GnT-IV [1], the “Inhibition of GnT-IV by nucleotides / UDP derivatives” value is recorded as “little inhibitory effect” and the “Activity (%), Inhibition of GnT-IV” value is reported as 97.3%.

In the case of `O=c1ccn([C@@H]2O[C@H](COP(=O)(O)OP(=O)(O)OP(=O)(O)O)[C@@H](O)[C@H]2O)c(=O)[nH]1` [UTP], the “Activity (%), Inhibition of GnT-IV” value at GnT-IV [1] came to 88.2%.

Regarding `O=c1ccn([C@@H]2O[C@H](CO)[C@@H](O)[C@H]2O)c(=O)[nH]1` [Uridine], at GnT-IV [1], the “Inhibition of GnT-IV by nucleotides / UDP derivatives” value is “little inhibitory effect; also recorded: do not have inhibitory effect” and the “Activity (%), Inhibition of GnT-IV” value is recorded as 115%.

With `OCC(O)CO` [glycerol], the “Stabilization of the enzyme” value at GnT-IV [1] is recorded as “Stabilizing effect is recognized”.

As for “asialo agalacto human transferrin: human transferrin treated with sialidase and β-galactosidase; glycoprotein substrate”, the “Transfer of [14C]GlcNAc to glycoprotein by GnT-IV” value in the experiment with GnT-IV [2] is “transfer of [^14 C] GlcNAc”.

As to “asialo agalacto, CHO cell-derived recombinant human erythropoietin: recombinant human erythropoietin with high biantennary sugar chain content treated with sialidase and β-galactosidase”, the “Transfer of [14C]GlcNAc to glycoprotein by GnT-IV” value with GnT-IV [2] is “transfer of [^14 C] GlcNAc”.
